The conditions of series [1]: tissues outside of liver and kidney; cited from earlier work.
Series [2] is described as follows: Solubility and stability of Mn-12 in water and aqueous acetic acid. It is filed as physicochemical. The text has this:
Based on simple criteria, Mn-12 appears ideal as a contrast agent.

Series [3] in a line: NMR relaxivity from slope of 1/T1 or 1/T2 versus concentration. It is filed as physicochemical. The settings on record: for r1 / r2: D2O and dilute acetic acid, 500 MHz. The protocol: Fresh samples for NMR measurements were prepared immediately prior to use. Both the cluster and cluster coated beads were dissolved in distilled water, and filtered via syringe filter. T1 measurements were measured using the inversion recovery pulse sequence, in a field of 300 MHz or 500 MHz, at room temperature with a least squares fit to 10 data points. The T2 was obtained using a conventional spin echo sequence on a 300 MHz spectrometer and using Carr-Purcell-Meiboom-Gill (CPMG) sequence on 500 MHz Bruker spectrometer. Relaxivity was determined from the slope of a plot of 1/T1 or 1/T2 versus concentration of Mn-12 and Mn-12 coated beads. The cluster concentration was determined by atomic absorption of Mn.

Setting [4] is: RT, per mM cluster, listed as Mn-12.

Consider `Cc1[nH+]cc(COP(=O)([O-])[O-])c(CN(CCN(CC(=O)[O-])Cc2c(COP(=O)([O-])O)c[nH+]c(C)c2O)CC(=O)[O-])c1O.[Mn].[Na+].[Na+].[Na+]` [Mn-DPDP, manganese dipyrodoxaldiphosphate], for which, in series [1], the “effect on T1 and T2 in tissues” value is “only limited effect on T1 and T2”.
Consider “[Mn12O12(O2CCH3)16 (H2O)4] [Mn12O12Ac16]”, for which, in series [2] (aqueous acetic acid solutions, re-isolated after many hours), the “stability in presence of excess carboxylic acid” value is recorded as “stable in aqueous acetic acid solutions”. In addition, in series [2] (distilled water), the “behaviour upon dissolution in distilled water” value is “within minutes a flocculent material forms”. For the same compound, the “temperature dependence of relaxivity” value in series [3] (37° C. versus room temperature) is “decreased at higher temperatures”. The r1 came to 2.7 ± 0.1 mM⁻¹ s⁻¹ in series [3] (37° C.); 3.0 ± 0.1 mM⁻¹ s⁻¹ in series [3] (RT, per mM cluster); 3.0 ± 0.1 mM⁻¹ s⁻¹ in series [3] (setting [4]). The r2 in series [3] (37° C.) amounted to 34 ± 1 mM⁻¹ s⁻¹; in series [3] (RT, per mM cluster), 48 ± 1 mM⁻¹ s⁻¹; in series [3] (setting [4]) it was 48 ± 1 mM⁻¹ s⁻¹. For the same compound, in series [3] (measurements at 300, 400, and 500 MHz), the “field dependence of relaxivity” value was “increase with higher fields”.

The values are drawn from patent publication US10342881B2, “Manganese-oxo clusters as contrast agents for magnetic resonance imaging” (Georgetown University, priority 2008, dated 2019).
